Experiments:
rDdGSTA2 = biological target: T1, rDdGSTA2 (Dictyostelium discoideum, UniProt Q556G3); assay: CDNB conjugation, absorbance at […] nm, Michaelis-Menten fit; assay type: biochemical; settings: saturating GSH; pH 7.5; 25°C
T1 construct: gene gsta2-1
T1 sequence (Q556G3 1-198): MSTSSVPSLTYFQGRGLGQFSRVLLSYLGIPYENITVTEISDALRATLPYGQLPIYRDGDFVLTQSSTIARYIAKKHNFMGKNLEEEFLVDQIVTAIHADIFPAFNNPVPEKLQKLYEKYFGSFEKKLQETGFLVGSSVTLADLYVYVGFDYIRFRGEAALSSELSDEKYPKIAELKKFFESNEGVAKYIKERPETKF

rDdGSTA3 = biological target: T2, rDdGSTA3 (Dictyostelium discoideum, UniProt Q54VI4); assay: as above; assay type: biochemical; settings: saturating GSH; pH 7.5; 25°C
T2 construct: gene gsta3
T2 sequence (Q54VI4 1-204): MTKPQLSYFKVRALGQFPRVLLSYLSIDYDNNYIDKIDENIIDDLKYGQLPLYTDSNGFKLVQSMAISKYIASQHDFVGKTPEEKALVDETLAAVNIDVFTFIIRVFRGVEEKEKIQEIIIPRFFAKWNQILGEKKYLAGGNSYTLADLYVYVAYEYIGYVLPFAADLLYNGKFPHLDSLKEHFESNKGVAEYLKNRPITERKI

In the case of O=[N+]([O-])c1ccc(Cl)c([N+](=O)[O-])c1 [CDNB, 1-chloro-2,4-dinitrobenzene], the Km (rDdGSTA2) is reported as 1290 ± 200 µM and the Km (rDdGSTA3) is reported as 562 ± 98.1 µM.
